“Also recorded” adds a separate entry of the source.
Columns and labels:
[1] = molecular target: T1, α2c adrenoreceptor (Homo sapiens, UniProt P18825); test: [35S]-GTPγS binding exchange, α2c CHO cell membranes; format: biochemical; settings: for stimulation of [35S]-GTPγS binding, α2c (in words): CHO cell membranes
T1 construct: expressed in transfected cells; host or cells: CHO (Chinese hamster ovary) cells, membranes
T1 sequence (P18825 1-462): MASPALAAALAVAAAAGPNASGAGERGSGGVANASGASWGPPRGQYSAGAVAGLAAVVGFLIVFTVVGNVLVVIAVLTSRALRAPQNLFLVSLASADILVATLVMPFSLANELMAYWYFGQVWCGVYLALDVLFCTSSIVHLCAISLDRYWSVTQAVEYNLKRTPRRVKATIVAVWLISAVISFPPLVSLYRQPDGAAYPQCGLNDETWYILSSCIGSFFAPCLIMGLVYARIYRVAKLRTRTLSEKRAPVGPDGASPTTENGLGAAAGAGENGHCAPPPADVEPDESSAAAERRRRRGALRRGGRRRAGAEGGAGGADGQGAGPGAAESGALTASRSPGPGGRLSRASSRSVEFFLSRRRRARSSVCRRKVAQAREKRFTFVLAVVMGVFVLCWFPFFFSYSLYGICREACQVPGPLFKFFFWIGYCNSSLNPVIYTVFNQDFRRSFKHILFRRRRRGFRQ
Protocol: (§1) The affinity and activity of phenylephrine metabolites were evaluated in human recombinant α1 and α2 adrenoreceptor binding and activity assays. […] Affinity of the metabolites was determined by receptor binding assays. Functional activity of the metabolites was assessed using an [^35S]-GTPγS binding exchange assay for the α2 receptor subtypes and a cell-based calcium flux response for the α1 receptor subtypes.
Assay buffer was 75 mM Tris-HCl pH 7.4, 12.5 mM MgCl2, 2 mM EDTA and 1 μM GDP. Plates were counted on a Packard TopCount. The percent increase over basal binding of [^35S]-GTPγS, a measure of efficacy, was calculated as follows: 100×[[mean total sample cpm−basal cpm]÷by basal cpm]. Basal cpm was defined as the mean cpm in the absence of agonist compound minus the mean non-specific binding cpm.
(§2) Each metabolite was evaluated in each assay in at least 2 independent experiments and a representative assay of each metabolite/assay combination is shown.

[2] = molecular target: T1, α2c adrenoreceptor; test: Competition binding, [3H]-UK14304, α2c CHO cell membranes; settings: for inhibition of [3H]-UK14304 binding, α2c (in words): CHO cell membranes
Protocol: as §1
(§3) Competition Binding Assays
(§4) Competition binding assays for the α2 adrenoreceptors were performed using 20 μg membrane protein per well in binding buffer (75 mM Tris-HCl pH 7.4, 12.5 mM MgCl2, […] EDTA, 0.2% bovine serum albumin). […] Binding was terminated by rapid filtration through GF/C unifilter plates, presoaked with 0.3% polyethylenimine, with five washes with 0.5 ml cold 50 mM Tris-HCl ph 7.4, using a Packard Filtermate Harvester. After drying, bound radioactivity was determined by liquid scintillation counting (Packard TopCount) with Microscint 20, 50 μl/well. Binding data were analyzed using GraphPad Prism.
as §2

[3] = molecular target: T2, α1a adrenoreceptor (Homo sapiens, UniProt P35348); test: Cellular calcium flux (FLIPR), α1a expressing CHO cells; format: cell-based; settings: for increase in intracellular calcium, α1a calcium assay (in words): α1a expressing CHO cells
T2 construct: expressed in transfected cells
T2 sequence (P35348 1-466): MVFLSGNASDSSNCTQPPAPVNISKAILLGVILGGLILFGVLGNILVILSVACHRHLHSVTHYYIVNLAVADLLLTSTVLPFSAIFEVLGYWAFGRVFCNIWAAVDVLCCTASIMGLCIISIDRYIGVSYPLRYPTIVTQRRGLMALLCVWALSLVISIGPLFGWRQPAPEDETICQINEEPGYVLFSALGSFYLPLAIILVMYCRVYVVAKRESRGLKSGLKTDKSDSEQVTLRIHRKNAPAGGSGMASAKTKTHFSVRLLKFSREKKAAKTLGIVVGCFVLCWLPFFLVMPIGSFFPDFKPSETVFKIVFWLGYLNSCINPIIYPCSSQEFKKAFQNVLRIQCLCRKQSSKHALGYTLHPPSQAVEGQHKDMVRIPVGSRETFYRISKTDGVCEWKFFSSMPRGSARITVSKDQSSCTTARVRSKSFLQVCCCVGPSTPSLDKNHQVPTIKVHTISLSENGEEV
Protocol: as §1
Intracellular calcium levels were measured using a fluorometric imaging plate reader (FLIPR). Cells expressing α1 adrenoreceptors were cultured overnight at 15,000 cells/well in 96 well black-wall clear bottom plates (Packard). Adherent cells were loaded for 1 hour at 37° C. using the FLIPR Calcium Plus Assay Kit (Molecular Probes, Eugene, Oreg.), which included 2.5 mM probenecid (Sigma). Compounds (at 10 mM in 100% DMSO) were diluted in diluting buffer (HBSS, 20 mM HEPES, 2.5 mM probenecid, 0.5% BSA, pH 7.4). A titration of norepinephrine was included in every experiment and norepinephrine (at 1 μM) was also used as a plate standard on each assay plate. Cells were maintained at 37° C. throughout all calcium measurements. Fluorescence data was collected at 1 second interval for 60 seconds, followed by collection at 2 second intervals for 30 seconds. Background fluorescence was quantitated in wells containing cells with no additions and was subtracted from all experimental samples. All conditions were done in quadruplicate. Non-linear regression analysis using GraphPad Prism was used to calculate EC50 values.
as §2

[4] = molecular target: T3, α2a adrenoreceptor (Homo sapiens, UniProt P08913); test: Competition binding, [3H]-UK14304, α2a CHO cell membranes; settings: for inhibition of [3H]-UK14304 binding, α2a (in words): CHO cell membranes
T3 construct: expressed in transfected cells; host or cells: CHO (Chinese hamster ovary) cells, membranes
T3 sequence (P08913 1-465): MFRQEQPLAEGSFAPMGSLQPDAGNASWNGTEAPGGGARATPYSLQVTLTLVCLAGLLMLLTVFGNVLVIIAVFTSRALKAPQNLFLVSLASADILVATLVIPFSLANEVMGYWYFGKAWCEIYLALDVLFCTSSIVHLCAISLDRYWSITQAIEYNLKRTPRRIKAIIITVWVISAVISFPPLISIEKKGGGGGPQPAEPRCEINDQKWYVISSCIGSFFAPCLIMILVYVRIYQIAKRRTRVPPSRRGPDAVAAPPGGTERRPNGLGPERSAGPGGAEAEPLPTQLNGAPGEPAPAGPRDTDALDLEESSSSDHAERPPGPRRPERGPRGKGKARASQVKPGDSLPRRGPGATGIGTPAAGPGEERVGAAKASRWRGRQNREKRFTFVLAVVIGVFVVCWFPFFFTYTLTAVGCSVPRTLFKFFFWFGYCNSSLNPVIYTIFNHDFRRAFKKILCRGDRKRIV
Protocol: as §1, §3, §4, §2

[5] = oral, approximately 24 mg of PE, healthy volunteers; cited from earlier work
[6] = listed as PE glucuronide batch 4
[7] = highest concentration evaluated (10 μM)
[8] = at 100 μM (highest concentration evaluated)

Row | Compound | stimulation of [35S]-GTPγS binding, α2c (in words) [1] | stimulation of [35S]-GTPγS binding, α2c (in words) ([1]; listed as PE glucuronide b2) | inhibition of [3H]-UK14304 binding, α2c (in words) [2] | inhibition of [3H]-UK14304 binding, α2c (in words) ([2]; listed as PE glucuronide b4) | inhibition of [3H]-UK14304 binding, α2c (in words) [2, 6] | fold less potent than PE in inducing a calcium increase, α1a cells ([3]; batch b4, approximately 0.28% PE) | increase in intracellular calcium, α1a calcium assay (in words) [3] | increase in intracellular calcium, α1a calcium assay (in words) [3, 6] | inhibition of [3H]-UK14304 binding, α2a (in words) [4] | inhibition of [3H]-UK14304 binding, α2a (in words) ([4]; listed as PE glucuronide b4) | inhibition of [3H]-UK14304 binding, α2a (in words) [4, 6] | metabolite excreted in the urine [5] | agonist activity, α2c [35S]-GTPγS assay (in words) [1, 7] | EC50 ([1]; read-out: EC50, a2c GTPγS (class symbol)) [µM] | Ki ([2]; [3H]-UK14304, read-out: Ki, a2c Binding (class symbol)) [µM] | binding / affinity, α2c receptor (in words) [2, 8] | agonist activity, α1a calcium assay (in words) [3, 7] | EC50 ([3]; α1a-expressing CHO cells, read-out: EC50, a1a Calcium (class symbol)) [µM] | Ki ([4]; [3H]-UK14304, read-out: Ki, a2a Binding (class symbol)) [µM] | binding / affinity, α2a receptor (in words) [4, 8]
1 | CNC[C@H](O)c1cccc(O[C@@H]2O[C@H](C(=O)O)[C@@H](O)[C@H](O)[C@H]2O)c1 [PE glucuronide, (R)-PE glucuronide] | nor did it activate binding; also recorded: pharmacologically inactive | No stimulatory activity | weakly inhibits binding; also recorded: pharmacologically inactive | A small amount of binding | minimal activity | 300-450 fold | consistent with level of contaminating phenylephrine; also recorded: pharmacologically inactive | minimal activity | weakly inhibits binding; also recorded: pharmacologically inactive | A small amount of binding | minimal activity | 12 % of dose | – | – | – | – | – | – | – | –
2 | O=C(O)C(O)c1cccc(O)c1 (stereo not shown) [3-hydroxymandelic acid] | no activity | – | but not; also recorded: no significant binding | – | – | – | not active | – | no significant binding | – | – | 30 % of dose | no activity | > 10 | > 100 | no affinity | no activity | > 10 | > 100 | no affinity

Source: patent US20090280160A1, “PHENYLEPHRINE PHARMACEUTICAL FORMULATIONS AND COMPOSITIONS FOR TRANSMUCOSAL ABSORPTION” (Schering-Plough Healthcare Products, Inc., priority 2007, published 2009)
